# Patent publication US20110071052A1, “MEASUREMENT OF PROTEIN KINASE ACTIVITY IN CEREBROSPINAL FLUID FOR DIAGNOSIS OF NEUROLOGICAL AND PSYCHIATRIC DISORDERS” (priority 2008, published 2011)
# Experiments:
# [1] = tested on: IL-1β induced IL-6 secretion by U373 astrocytoma cells; experiment: IL-1β induced IL-6 secretion by U373 astrocytoma cells (ELISA); format: cell-based; conditions: IL-1β 10 U/ml, 6 hours, inhibitor 1250, 2500 or 5000 nM
# [2] = tested on: IL-1β induced IL-6 secretion by human primary astrocytes; experiment: IL-1β induced IL-6 secretion by human primary astrocytes (ELISA); format: cell-based; conditions: IL-1β 10 U/ml, 6 hours, inhibitor 1250, 2500 or 5000 nM
# Description: IL-1β has been implicated in both the initiation and propagation of neuroinflammatory changes seen in Alzheimer's disease patients. One of the main mechanisms of IL-1β is the induction of interleukin 6 (IL-6) secretion, which propagates the neuroinflammatory response in Alzheimer's disease patients. Using primary human adult astrocytes this inflammatory response as well as modulators (i.e. potential drugs for therapy) can be studied in vitro. […] In the presence of IL-1β (10 U/ml) these cells secrete IL-6 in the culture supernatant, which can be measured by ELISA. […] Cells were incubated with or without IL-1β (10 U/ml) for 6 hours in the presence of different concentration of IRAK1/4 inhibitor I (1250, 2500, or 5000 nM). IL-6 levels (pg/ml) in the culture supernatants were determined by ELISA. Shown are mean levels +/− S.D. of three replicate stimulations.
structure (smiles),measurement,setting,value
O=C(Nc1nc2ccccc2n1CCN1CCOCC1)c1cccc([N+](=O)[O-])c1 [IRAK1/4 inhibitor I],IL-6 secretion in culture supernatant,[1],dose-dependently inhibits IL-6 secretion
same,IL-6 secretion in culture supernatant,[1]; listed as IRAK1/4 inhibitor,reduced
same,IL-6 secretion in culture supernatant,[2],dose-dependently inhibits IL-6 secretion
same,IL-6 secretion in culture supernatant,[2]; listed as IRAK1/4 inhibitor,reduced
